Source: publication PMC8657848, “Developmental Toxicity and Biotransformation of Two Anti-Epileptics in Zebrafish Embryos and Early Larvae” (International Journal of Molecular Sciences, 2021)
Values joined by “and” are separate entries in the source; they are usually repeats but may differ in a detail not shown here. Equal values may be shown once.

Key:
zebrafish embryos = conditions: cited from earlier work; for Teratogenicity on zebrafish development: after 70 h of exposure (time point 72 hpf)
[1] = system: zebrafish embryos and larvae; assay: Morphological evaluation of zebrafish embryos/larvae exposed from 5¼ to 120 hpf; conditions: for Significant effect on embryo/larva development after exposure to the metabolite: 5¼–120 hpf; for Teratogenicity in zebrafish (conclusion from morphological and analytical assessment): exposure 5¼–120 hpf
Protocol: Each experiment was performed in two biological replicates (n = 2, 20 embryos/replicate) and consisted of a medium control group (EMS), solvent control group(s) (EMS + 0.5% DMSO and/or EMS + 1% DMSO) and four dose groups. […] Embryos were reared until they reached the desired developmental stage, under the same environmental conditions as the adults (28.5 °C ± 0.3 °C with a 14/10 h light/dark cycle) in the incubator (TIN-IN35, Phoenix instrument, Garbsen, Germany).
For the metabolites, E-CBZ (≥98% purity, CAS number: 36507-30-9, Supelco, Merck, Darmstadt, Germany) and HPPH (98% purity, CAS number: 2784-27-2, Sigma-Aldrich®, Merck, Darmstadt, Germany), we only selected one high concentration, 250 µM (see Supplementary Table S1). […] A higher percentage of DMSO was used for E-CBZ for the optimum dissolution of E-CBZ in EMS. Immediately after the selection (see Section 4.1), twenty embryos were randomly distributed in each control and test group. Embryos were exposed at the latest at 5 hpf in a final volume of 300 µL medium at a density of a fish per well.
For each biological replicate (n = 2), zebrafish embryos were morphologically investigated at 5¼, 10, 24, 48, 72, 96 and 120 hpf (Figure 9) using an Olympus CKX41 microscope with an Olympus U-TV0.5XC-3 lighting and an Olympys 4x/0.16 Uplan APO microscope objective (Shinjuku, Tokyo, Japon) to follow the developmental stages described by Kimmel et al.. The 5¼- and 10-hpf time points served as control steps to identify unfertilized or coagulated eggs that were included unwittingly to the experiment and referenced as coagulated in the 24-hpf morphological sheet (see Supplementary Figure S3). A series of morphological parameters were explored, adapted from Nagel et al., depending on the different time points of interest and described previously by our group (see Supplementary Figure S3). All parameters were scored 0 if normal and 1 if malformed. This binary scale was used to facilitate the scoring and no gradation of the severity of the endpoints was evaluated in this study.

[2] = Quantification of compound in stock and culture medium relative to nominal concentration (LC-MS); type: physicochemical; conditions: 96 hpf
Protocol: The control and test mediums were also kept in the same incubator until the last time point of the experiment. The embryo media were renewed every 48 h, to avoid medium acidification and oxygen deprivation. At each medium change and at the last time point of the experiment (Figure 9), the media exposed to the embryos were pooled and kept at −80 °C for further use (n = 3). Moreover, samples from the stock solutions kept at 28.5 °C ± 0.3 °C were also taken at 0 and 120 hpf (n = 3), whereas samples were only taken at 96 hpf for the metabolites medium (E-CBZ and HPPH).

zebrafish embryos/larvae = assay: Quantification of parent compounds and metabolites in whole zebrafish embryos/larvae homogenate extracts; conditions: for Uptake by embryos and larvae (quantified in homogenate extracts): 24 and 120 hpf, CBZ, PHE 31.25, 85, 250 µM, E-CBZ, HPPH 250 µM
Protocol: In three biological replicates (n = 3; 20 embryos/replicate) and at the two desired developmental stages (24 and 120 hpf), embryos/larvae of each test and control group were pooled and then rinsed three times with cold EMS (4 °C) on a mesh (Cell strainer […] Nylon, Steril Falcon®, Durham, NC, USA). Embryos collected at 24 hpf were not dechorionated, as the focus of this study was on the potential formation of the mammalian active metabolites. Moreover, it was argued that the chorion was more permeable than previously believed and that dechorionation could increase background malformations during gross morphology investigation. Embryos/larvae were then transferred and kept for five min in cryotubes (Cryo.S™, Greiner Bio-One, Frickenhausen, Germany) filled with 500 µL of cold embryo medium (4 °C), before being snap-frozen in liquid nitrogen and kept, for later use, at −80 °C (Figure 9).
The extraction preparation was based on Brox et al. for two developmental stages, 24 and 120 hpf, and performed in triplicate for each test group (n = 3, 20 embryos/replicate) (Figure 9). On the day of the extraction procedure, frozen samples (see Section 4.2.1) were thawed on ice and EMS was removed. A volume of 500 µL of acetonitrile (ACN) (purity ≥99.9%, Merck, Darmstadt, Germany) containing the internal standard lamotrigine, LAMO, (≥98% purity, CAS number: 84057-84-1, Sigma-Aldrich, Merck, Darmstadt, Germany) was then added to each tube to reach a final concentration of 0.39 µM, after dilution in HPLC-grade water. Samples were vortexed (VM3, CAT, Germany) for 5 min at a 2000 rotation/min speed, before being placed on ice and ultrasonicated with an Ultrasonic Processor VCX 130 (Sonics, Newtown, CT, USA) fifteen times for 30 s at an 80% amplitude with pause intervals of 30 s. Supernatants of the samples were then centrifuged (Centrifuge 5424 R, Eppendorf, Hamburg, Germany) twice at 4 °C for 15 min at 15,000× g, snap-frozen and kept for later use at −80 °C, whereas the pellets were discarded.
First, both sample types were processed to reach a final percentage of 30% ACN and a concentration of 0.39 µM of the IS, LAMO. […] Calibration curves and quality controls were prepared in their corresponding reaction mixtures to minimize matrix or extraction process effects. The analytical investigations were performed on an Acquity Ultra Performance Liquid Chromatography (UPLC) with sample manager, binary solvent manager, diode array detector and a triple-quadrupole detector (ACQUITY UPLC-triple quadrupole detector, Waters, Milford, CT, USA) equipped with the Masslynx software (version 4.1). […] Separation was accomplished in 6 min, using a flow rate of 0.5 mL/min. The solvent gradient program was set as follows: 85% A/15% B (0–0.5 min); 85–0% A/15–100% B (0.5–3.3 min); 0% A/100% B (3.3–4.4 min); 0–85% A/100–15% B (4.4–4.5 min); 85% A/15% B (4.5–6 min). The column was set at 40 °C and the injection volume was 10 μL. For the mass spectrometric conditions, the following parameters were used in positive ionization mode: capillarity voltage 3.5 kV, extractor voltage 3 V, cone voltage 35 V, Rf lens 0.1 V. The source temperature was set at 120 °C and the desolation temperature at 450 °C. The desolvation gas flow was fixed at 1000 L/h and cone gas flow at 50 L/h. […] The limit of quantification, linearity, matrix effects and specificity of the method developed for each compound were validated based on the European Medicines Agency (EMA) guidelines for bioanalytical method validation and the study from Kislyuk et al..
For the quantification of the metabolites E-CBZ and HPPH, the samples processed were the microsomal incubation reactions (see Section 4.3.2), the zebrafish culture and stock medium (4.2.1) and the zebrafish embryos/larvae extracts (see Section 4.2.3). Samples from the different experiments were also prepared, as for the parent compounds, to reach a final percentage of 30% ACN and a concentration of 0.39 µM of the IS, LAMO.

[3] = CBZ/E-CBZ experiment, 250 µM, 120 hpf, affected/evaluated, replicates 1 and 2
[4] = PHE/HPPH experiment, 250 µM, 120 hpf, affected/evaluated, replicates 1 and 2

SMILES: CC1(C)OC(=O)NC1=O [DMO, dimethadione]
- Teratogenicity on zebrafish development (zebrafish embryos): induced teratogenicity

SMILES: NC(=O)N1c2ccccc2C2OC2c2ccccc21 (stereo not drawn) [E-CBZ, carbamazepine-10,11-epoxide]
- Significant effect on embryo/larva development after exposure to the metabolite ([1]; 250 µM): delay in swim bladder inflation at 120 hpf for one replicate
- Morphological differences compared with the controls before 48 hpf ([1]; CBZ 31.25, 85, 250 µM, E-CBZ 250 µM): No statistically significant differences
- Deviation Tail Curve [1, 3]: 1/20
- Malformation Head Deviation Eye [1, 3]: 1/20
- Malformation Head Deviation Mouth [1, 3]: 1/20
- Oedema Head [1, 3]: 1/20
- Oedema Pericardium [1, 3]: 1/20
- Oedema Yolk [1, 3]: 1/20
- Swim Bladder Not Inflated [1, 3]: 3/20 and 6/20 *
- Teratogenicity in zebrafish (conclusion from morphological and analytical assessment) [1]: not teratogenic in zebrafish
- Quantified concentration above the nominal concentration ([2]; 250 µM, culture medium): around 20%
- Percentage of quantified compound concentration relatively to the nominal concentration ([2]; CBZ–E-CBZ, Culture medium, nominal 250 µM): 117.3 ± 9.3%
- Uptake by embryos and larvae (quantified in homogenate extracts) (zebrafish embryos/larvae): Uptake of the compounds was also observed
- Findings after incubation of zebrafish embryos (zebrafish embryos; 2.6 mg/L (10.3 µM), 3 to 144 hpf): lack of findings

SMILES: O=C1NC(=O)C(c2ccccc2)(c2ccc(O)cc2)N1 (stereo not drawn) [HPPH, 5-(4-hydroxyphenyl)-5-phenylhydantoin]
- Significant effect on embryo/larva development after exposure to the metabolite ([1]; 250 µM): no significant effect
- Deviation Tail Curve [1, 4]: 2/20
- Deviation Tail Tissue Deviation [1, 4]: 1/20
- Malformation Head Deviation Eye [1, 4]: 2/20
- Swim Bladder Not Inflated [1, 4]: 5/20 and 6/20
- Teratogenicity in zebrafish (conclusion from morphological and analytical assessment) [1]: not teratogenic in zebrafish
- Uptake by embryos and larvae (quantified in homogenate extracts) (zebrafish embryos/larvae): Uptake of the compounds was also observed
- Internal concentration, times higher at 24 hpf than at 120 hpf (zebrafish embryos/larvae; all concentrations): ~5 times

SMILES: CN1C(=O)OC(C)(C)C1=O [TMO, trimethadione]
- Teratogenicity on zebrafish development (zebrafish embryos): induced teratogenicity
